Test results: ChEMBL document CHEMBL5291721, “A preclinical secondary pharmacology resource illuminates target-adverse drug reaction associations of marketed drugs” (Nat Commun, 2023)

What was measured:
[1] = biological target: T1, Adenosine receptor A3 (Homo sapiens, UniProt P0DMS8)
T1 sequence (P0DMS8 whole entry): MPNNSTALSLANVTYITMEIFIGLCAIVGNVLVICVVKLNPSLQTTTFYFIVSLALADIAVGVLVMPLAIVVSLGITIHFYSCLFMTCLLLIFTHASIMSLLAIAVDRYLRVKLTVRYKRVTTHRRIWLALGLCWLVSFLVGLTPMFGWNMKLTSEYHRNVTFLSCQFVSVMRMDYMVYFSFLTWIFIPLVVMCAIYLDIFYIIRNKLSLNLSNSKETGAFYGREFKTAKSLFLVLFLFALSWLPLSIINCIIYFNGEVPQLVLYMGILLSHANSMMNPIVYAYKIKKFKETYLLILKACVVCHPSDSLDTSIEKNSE

[2] = biological target: T2, Alpha-2A adrenergic receptor (Homo sapiens, UniProt P08913)
T2 sequence (P08913 whole entry): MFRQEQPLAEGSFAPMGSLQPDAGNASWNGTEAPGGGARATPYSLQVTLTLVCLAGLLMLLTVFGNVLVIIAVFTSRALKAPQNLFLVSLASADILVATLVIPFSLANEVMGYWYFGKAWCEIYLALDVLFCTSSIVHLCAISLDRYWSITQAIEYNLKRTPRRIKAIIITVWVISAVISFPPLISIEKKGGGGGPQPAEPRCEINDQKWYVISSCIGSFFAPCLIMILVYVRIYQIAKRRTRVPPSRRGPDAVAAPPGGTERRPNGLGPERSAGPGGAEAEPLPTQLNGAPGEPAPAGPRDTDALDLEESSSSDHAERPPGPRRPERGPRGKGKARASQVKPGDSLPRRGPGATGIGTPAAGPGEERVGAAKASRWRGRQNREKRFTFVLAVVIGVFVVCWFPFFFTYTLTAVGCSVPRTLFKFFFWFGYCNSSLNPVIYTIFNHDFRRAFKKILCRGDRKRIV

[3] = biological target: T3, Muscarinic acetylcholine receptor M2 (Homo sapiens, UniProt P08172)
T3 sequence (P08172 whole entry): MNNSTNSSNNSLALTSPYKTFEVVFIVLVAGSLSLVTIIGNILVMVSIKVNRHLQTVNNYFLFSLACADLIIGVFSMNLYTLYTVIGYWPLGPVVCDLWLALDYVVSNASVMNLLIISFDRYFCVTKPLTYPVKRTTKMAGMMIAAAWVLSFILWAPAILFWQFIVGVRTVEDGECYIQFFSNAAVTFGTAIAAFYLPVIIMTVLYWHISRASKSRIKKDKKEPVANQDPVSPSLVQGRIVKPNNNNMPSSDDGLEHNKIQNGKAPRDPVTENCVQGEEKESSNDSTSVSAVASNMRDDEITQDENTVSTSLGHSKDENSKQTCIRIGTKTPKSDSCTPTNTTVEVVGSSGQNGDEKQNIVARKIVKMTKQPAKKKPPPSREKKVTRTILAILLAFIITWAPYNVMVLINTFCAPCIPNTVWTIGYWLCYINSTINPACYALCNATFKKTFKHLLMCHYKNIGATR

[4] = biological target: Prothrombin (Homo sapiens, UniProt P00734); assay type: functional
[5] = biological target: Histamine H3 receptor (Homo sapiens, UniProt Q9Y5N1)
[6] = biological target: T4, 5-hydroxytryptamine receptor 1A (Homo sapiens, UniProt P08908)
T4 sequence (P08908 whole entry): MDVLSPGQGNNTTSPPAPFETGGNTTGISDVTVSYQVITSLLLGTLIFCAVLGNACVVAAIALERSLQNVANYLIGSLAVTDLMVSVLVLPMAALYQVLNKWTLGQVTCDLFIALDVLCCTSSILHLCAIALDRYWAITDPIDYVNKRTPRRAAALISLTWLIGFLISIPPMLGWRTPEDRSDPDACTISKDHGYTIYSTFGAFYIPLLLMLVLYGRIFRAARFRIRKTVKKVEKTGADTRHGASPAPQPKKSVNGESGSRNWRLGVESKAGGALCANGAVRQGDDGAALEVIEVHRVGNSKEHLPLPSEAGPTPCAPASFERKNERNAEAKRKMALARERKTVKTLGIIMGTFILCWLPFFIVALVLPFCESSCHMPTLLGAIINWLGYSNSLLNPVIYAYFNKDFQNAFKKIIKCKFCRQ

[7] = biological target: 5-hydroxytryptamine receptor 2B (Homo sapiens, UniProt P41595); assay type: functional, cell-based
[8] = biological target: cGMP-inhibited 3',5'-cyclic phosphodiesterase 3A (Homo sapiens, UniProt Q14432); assay type: functional
[9] = biological target: 3',5'-cyclic-AMP phosphodiesterase 4A (Homo sapiens, UniProt P27815); assay type: functional
[10] = biological target: T5, Progesterone receptor (Homo sapiens, UniProt P06401)
T5 sequence (P06401 whole entry): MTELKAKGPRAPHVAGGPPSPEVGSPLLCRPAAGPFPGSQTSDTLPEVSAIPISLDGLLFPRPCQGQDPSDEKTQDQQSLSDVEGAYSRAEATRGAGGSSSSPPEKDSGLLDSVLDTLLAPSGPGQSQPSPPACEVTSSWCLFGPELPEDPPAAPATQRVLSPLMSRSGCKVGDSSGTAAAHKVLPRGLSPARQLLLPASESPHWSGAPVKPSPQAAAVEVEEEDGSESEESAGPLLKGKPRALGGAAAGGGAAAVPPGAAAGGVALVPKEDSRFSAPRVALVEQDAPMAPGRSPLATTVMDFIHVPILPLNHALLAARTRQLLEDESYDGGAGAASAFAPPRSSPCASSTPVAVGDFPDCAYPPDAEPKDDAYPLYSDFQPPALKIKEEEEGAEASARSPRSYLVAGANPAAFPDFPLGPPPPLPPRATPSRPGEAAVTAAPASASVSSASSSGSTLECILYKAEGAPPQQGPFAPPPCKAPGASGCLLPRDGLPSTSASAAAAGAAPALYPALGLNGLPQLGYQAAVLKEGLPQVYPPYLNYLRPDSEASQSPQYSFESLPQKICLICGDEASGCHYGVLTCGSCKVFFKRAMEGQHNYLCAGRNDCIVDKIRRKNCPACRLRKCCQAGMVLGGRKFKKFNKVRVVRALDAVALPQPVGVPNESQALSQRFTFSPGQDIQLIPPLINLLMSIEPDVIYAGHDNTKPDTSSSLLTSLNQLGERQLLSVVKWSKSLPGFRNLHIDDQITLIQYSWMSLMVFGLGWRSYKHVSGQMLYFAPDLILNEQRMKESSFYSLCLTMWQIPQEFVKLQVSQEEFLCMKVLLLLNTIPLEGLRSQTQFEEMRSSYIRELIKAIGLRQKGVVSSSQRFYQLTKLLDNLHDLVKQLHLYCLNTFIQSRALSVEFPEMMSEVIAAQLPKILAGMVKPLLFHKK

[11] = biological target: Prostaglandin G/H synthase 1 (Homo sapiens, UniProt P23219); assay type: functional
Also: assay procedure not described here.

Prostaglandin G/H synthase 1, sequence (P23219 whole entry): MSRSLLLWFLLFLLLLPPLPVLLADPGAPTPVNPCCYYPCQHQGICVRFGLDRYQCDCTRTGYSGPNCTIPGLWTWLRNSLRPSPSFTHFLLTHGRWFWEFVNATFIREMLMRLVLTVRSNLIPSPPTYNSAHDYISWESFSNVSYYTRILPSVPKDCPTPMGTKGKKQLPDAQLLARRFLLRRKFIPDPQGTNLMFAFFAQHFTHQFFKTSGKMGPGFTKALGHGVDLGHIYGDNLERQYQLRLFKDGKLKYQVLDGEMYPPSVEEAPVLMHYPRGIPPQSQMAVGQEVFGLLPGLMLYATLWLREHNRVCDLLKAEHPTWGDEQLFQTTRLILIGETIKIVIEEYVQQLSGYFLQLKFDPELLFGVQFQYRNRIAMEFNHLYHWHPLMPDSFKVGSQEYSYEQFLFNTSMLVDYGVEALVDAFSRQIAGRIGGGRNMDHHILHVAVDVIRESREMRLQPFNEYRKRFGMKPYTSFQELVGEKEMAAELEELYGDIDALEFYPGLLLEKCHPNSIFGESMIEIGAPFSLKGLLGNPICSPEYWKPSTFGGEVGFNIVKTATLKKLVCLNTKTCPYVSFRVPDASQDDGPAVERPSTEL
cGMP-inhibited 3',5'-cyclic phosphodiesterase 3A, sequence (Q14432 whole entry): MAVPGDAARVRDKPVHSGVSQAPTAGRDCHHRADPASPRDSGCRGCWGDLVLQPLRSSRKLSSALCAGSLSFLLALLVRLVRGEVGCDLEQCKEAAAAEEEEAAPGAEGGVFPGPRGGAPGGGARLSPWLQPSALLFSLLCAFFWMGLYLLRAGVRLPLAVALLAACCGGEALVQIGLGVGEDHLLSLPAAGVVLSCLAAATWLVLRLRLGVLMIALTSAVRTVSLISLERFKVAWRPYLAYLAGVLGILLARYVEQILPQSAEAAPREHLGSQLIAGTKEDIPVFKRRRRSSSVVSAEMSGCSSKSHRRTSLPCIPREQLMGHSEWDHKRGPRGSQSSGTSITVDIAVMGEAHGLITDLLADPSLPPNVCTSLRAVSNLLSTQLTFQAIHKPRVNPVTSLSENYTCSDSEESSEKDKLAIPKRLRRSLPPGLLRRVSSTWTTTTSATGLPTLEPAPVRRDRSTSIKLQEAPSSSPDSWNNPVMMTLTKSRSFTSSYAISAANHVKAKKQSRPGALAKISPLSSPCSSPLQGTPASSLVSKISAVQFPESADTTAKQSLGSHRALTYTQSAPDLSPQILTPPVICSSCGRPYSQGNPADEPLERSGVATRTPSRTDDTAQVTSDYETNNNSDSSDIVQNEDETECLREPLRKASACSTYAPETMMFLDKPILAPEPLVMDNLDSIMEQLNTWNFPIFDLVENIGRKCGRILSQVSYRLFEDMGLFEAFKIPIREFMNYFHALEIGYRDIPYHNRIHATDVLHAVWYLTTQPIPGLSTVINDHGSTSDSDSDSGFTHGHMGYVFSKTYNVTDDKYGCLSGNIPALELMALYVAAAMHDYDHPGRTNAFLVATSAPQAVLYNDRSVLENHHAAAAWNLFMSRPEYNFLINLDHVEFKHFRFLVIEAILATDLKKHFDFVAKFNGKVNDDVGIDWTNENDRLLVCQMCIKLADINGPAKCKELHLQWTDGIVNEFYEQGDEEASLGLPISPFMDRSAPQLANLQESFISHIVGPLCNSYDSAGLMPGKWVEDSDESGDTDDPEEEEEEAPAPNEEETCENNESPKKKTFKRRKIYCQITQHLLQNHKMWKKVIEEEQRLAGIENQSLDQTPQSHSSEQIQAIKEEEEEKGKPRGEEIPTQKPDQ
3',5'-cyclic-AMP phosphodiesterase 4A, sequence (P27815 whole entry): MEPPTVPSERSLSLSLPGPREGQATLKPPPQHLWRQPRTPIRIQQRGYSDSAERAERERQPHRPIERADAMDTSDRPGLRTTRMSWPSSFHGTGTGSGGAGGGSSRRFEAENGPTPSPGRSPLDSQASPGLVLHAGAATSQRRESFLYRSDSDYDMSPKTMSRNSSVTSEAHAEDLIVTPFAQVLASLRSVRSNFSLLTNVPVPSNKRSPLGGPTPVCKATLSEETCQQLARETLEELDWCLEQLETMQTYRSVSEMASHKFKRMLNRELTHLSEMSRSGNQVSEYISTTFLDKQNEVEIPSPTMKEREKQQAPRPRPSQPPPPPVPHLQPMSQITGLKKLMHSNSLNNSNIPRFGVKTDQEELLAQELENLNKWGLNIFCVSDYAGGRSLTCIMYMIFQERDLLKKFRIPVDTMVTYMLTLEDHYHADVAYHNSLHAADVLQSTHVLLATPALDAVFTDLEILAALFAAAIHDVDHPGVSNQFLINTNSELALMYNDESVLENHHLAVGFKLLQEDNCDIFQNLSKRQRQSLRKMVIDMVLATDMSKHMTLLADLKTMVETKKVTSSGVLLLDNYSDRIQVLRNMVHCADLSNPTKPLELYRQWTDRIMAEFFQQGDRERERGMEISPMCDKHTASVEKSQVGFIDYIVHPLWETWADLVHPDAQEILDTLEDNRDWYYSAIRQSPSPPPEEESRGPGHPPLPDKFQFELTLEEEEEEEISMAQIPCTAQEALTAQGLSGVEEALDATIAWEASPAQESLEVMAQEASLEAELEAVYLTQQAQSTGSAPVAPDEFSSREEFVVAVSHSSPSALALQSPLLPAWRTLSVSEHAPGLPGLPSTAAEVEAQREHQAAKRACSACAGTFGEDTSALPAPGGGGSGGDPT
Histamine H3 receptor, sequence (Q9Y5N1 whole entry): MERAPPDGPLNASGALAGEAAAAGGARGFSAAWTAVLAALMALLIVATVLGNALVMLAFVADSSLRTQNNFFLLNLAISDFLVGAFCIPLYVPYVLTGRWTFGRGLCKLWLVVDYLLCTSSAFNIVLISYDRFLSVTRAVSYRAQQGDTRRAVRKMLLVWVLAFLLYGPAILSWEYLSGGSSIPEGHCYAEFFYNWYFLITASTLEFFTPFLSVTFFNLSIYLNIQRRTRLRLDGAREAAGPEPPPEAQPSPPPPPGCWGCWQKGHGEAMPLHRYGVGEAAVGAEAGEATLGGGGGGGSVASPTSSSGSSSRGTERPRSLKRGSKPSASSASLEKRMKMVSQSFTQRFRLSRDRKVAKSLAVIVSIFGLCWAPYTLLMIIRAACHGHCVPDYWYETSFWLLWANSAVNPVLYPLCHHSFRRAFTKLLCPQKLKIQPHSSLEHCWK
5-hydroxytryptamine receptor 2B, sequence (P41595 whole entry): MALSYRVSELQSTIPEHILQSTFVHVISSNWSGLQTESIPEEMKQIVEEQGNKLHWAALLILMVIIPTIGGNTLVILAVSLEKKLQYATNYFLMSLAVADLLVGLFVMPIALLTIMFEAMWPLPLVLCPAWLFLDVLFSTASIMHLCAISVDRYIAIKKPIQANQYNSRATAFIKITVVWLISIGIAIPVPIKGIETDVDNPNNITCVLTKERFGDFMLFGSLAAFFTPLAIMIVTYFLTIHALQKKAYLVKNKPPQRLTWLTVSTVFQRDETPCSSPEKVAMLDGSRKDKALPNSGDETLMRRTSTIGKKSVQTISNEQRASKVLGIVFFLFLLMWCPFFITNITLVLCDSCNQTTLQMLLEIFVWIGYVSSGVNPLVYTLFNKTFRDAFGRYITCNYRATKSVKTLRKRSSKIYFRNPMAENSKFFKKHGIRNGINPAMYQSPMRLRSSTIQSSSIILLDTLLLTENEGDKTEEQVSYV

SMILES | AC50 [1] | AC50 [2] | AC50 [3] | AC50 [4] | AC50 [5] | AC50 [6] | AC50 [7] | AC50 [8] | AC50 [9] | AC50 [10] | AC50 [11]
Cn1cc[nH]c1=S [METHIMAZOLE] | > 30 µM | > 30 µM | > 30 µM | > 30 µM | > 30 µM | > 30 µM | > 30 µM | > 30 µM | > 30 µM | > 30 µM | > 30 µM
CN1CCN(C(c2ccccc2)c2ccccc2)CC1 [CYCLIZINE] | 9.64 µM | 3.47 µM | 0.334 µM | > 30 µM | > 30 µM | > 30 µM | > 30 µM | > 30 µM | > 30 µM | > 30 µM | > 30 µM
C[C@@H]1C[C@H]2[C@@H]3CCC4=CC(=O)C=C[C@]4(C)[C@@]3(F)[C@@H](O)C[C@]2(C)[C@H]1C(=O)CO [DESOXIMETASONE] | > 30 µM | > 30 µM | > 30 µM | > 30 µM | > 30 µM | > 30 µM | > 30 µM | > 30 µM | > 30 µM | 0.0331 µM | > 30 µM
Oc1cccc2cccnc12 [OXYQUINOLINE] | > 30 µM | > 30 µM | > 30 µM | > 30 µM | > 30 µM | > 30 µM | > 30 µM | > 30 µM | > 30 µM | > 30 µM | > 30 µM
C[C@@H]1C[C@H]2[C@@H]3C[C@H](F)C4=CC(=O)C=C[C@]4(C)[C@@]3(F)[C@@H](O)C[C@]2(C)[C@@]1(O)C(=O)COC(=O)C(C)(C)C [FLUMETHASONE PIVALATE] | > 30 µM | > 30 µM | > 30 µM | > 30 µM | > 30 µM | > 30 µM | > 30 µM | > 30 µM | > 30 µM | 5.85 µM | > 30 µM
O=C(O)c1cccc(-c2noc(-c3ccccc3F)n2)c1 | > 30 µM | > 30 µM | > 30 µM | > 30 µM | > 30 µM | > 30 µM | > 30 µM | > 30 µM | > 30 µM | > 30 µM | > 30 µM
O=[N+]([O-])c1cncn1CCN1CCOCC1 [NIMORAZOLE] | > 30 µM | > 30 µM | > 30 µM | > 30 µM | > 30 µM | > 30 µM | > 30 µM | > 30 µM | > 30 µM | > 30 µM | > 30 µM
O=C1CN=C(c2ccccc2)c2c(sc3c2CCCC3)N1 [BENTAZEPAM] | 14.3 µM | 23.9 µM | > 30 µM | > 30 µM | > 30 µM | 1.55 µM | > 30 µM | > 30 µM | 15.7 µM | 14.8 µM | > 1 µM
